Laboratory results taken from the supplement of paper PMC10307832.

Columns and labels:
Assay in all cases: relative viability (nuclei count vs DMSO), 5 days (fraction); higher = more cells survive
[1] = compound: CCC1=CN=CN=C1N2CCN(CC2)CC3=NC4=C(N3)C=C(C=C4)C(F)(F)F
In short: (§1)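 On vehicle-anchored 1536-well plates, lung cancer cell lines held overnight at 37 °C were pinned with five library-drug doses (not always all listed) spaced by √10. With no medium change over 5 days, they were then fixed, permeabilised and Hoechst-stained in one step and imaged at 4×. MetaXpress counted nuclei, and viability is the median across plates of treated-well over vehicle-well nuclei. Acceptance needed control CV below 25% and at least one doubling.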

[2] = compound: CCn1c(-c2nonc2N)nc2cnc(Oc3cccc(NC(=O)c4ccc(OCCN5CCOCC5)cc4)c3)cc21
In short: as §1

Mirin = compound: N=C1NC(=O)/C(=C/c2ccc(O)cc2)S1 [Mirin]
In short: as §1

[3] = compound: CCn1c(-c2nonc2N)nc2cnc(Oc3cccc(NC(=O)c4ccc(OCCN5CCOCC5)cc4)c3)cc21 + C[C@@H](Oc1cc(-c2cnn(C3CCNCC3)c2)cnc1N)c1c(Cl)ccc(F)c1Cl [Crizotinib] (partner 1 µM)
In short: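 Five library-drug doses in √10 steps were combined with a fixed anchor-drug dose, or a single drug was given alone, by pin tool to lung cancer cell lines in 1536-well plates the day after seeding. Nuclei were stained and counted after 5 days. Relative viability is the nuclei count in treated wells over that in vehicle wells, taken as the median of duplicate plates.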

| Cell Line | relative viability ([1]; 0.04 µM) | relative viability ([1]; 0.1265 µM) | relative viability ([1]; 0.4 µM) | relative viability ([1]; 1.265 µM) | relative viability ([1]; 4 µM) | relative viability ([2]; 0.04 µM) | relative viability ([2]; 0.1265 µM) | relative viability ([2]; 0.4 µM) | relative viability ([2]; 1.265 µM) | relative viability ([2]; 4 µM) | relative viability (Mirin; 0.25 µM) | relative viability (Mirin; 0.7906 µM) | relative viability (Mirin; 2.5 µM) | relative viability (Mirin; 7.906 µM) | relative viability (Mirin; 25 µM) | relative viability ([3]; first compound 0.04 µM) | relative viability ([3]; first compound 0.1265 µM) | relative viability ([3]; first compound 0.4 µM) | relative viability ([3]; first compound 1.265 µM) | relative viability ([3]; first compound 4 µM) |
| --- | --- | --- | --- | --- | --- | --- | --- | --- | --- | --- | --- | --- | --- | --- | --- | --- | --- | --- | --- | --- |
| LU99A | 1.14 | 0.904 | 0.902 | 0.821 | 0.92 | 1.02 | 0.694 | 0.67 | 0.536 | 0.504 | 0.997 | 0.783 | 0.922 | 0.864 | 0.857 | 0.581 | 0.64 | 0.528 | 0.636 | 0.424 |
| LXF-289 | 1.1 | 0.944 | 0.953 | 1.05 | 0.99 | 1.07 | 1.12 | 0.965 | 0.858 | 0.762 | 0.997 | 1.1 | 0.999 | 1.06 | 1.13 | 0.839 | 0.871 | 0.821 | 0.598 | 0.549 |
| NCI-H23 | 0.852 | 0.918 | 0.812 | 0.742 | 0.954 | 1.21 | 1 | 0.567 | 0.674 | 0.589 | 1 |  | 0.907 | 0.819 | 0.907 | 0.812 | 0.82 |  | 0.439 | 0.305 |
| NCI-H322M | 1.05 | 0.95 | 0.935 | 0.729 | 1.01 | 1.22 | 1.17 | 0.882 | 0.656 | 0.72 | 0.99 | 0.867 | 0.967 | 1.19 | 0.944 | 1.28 | 0.976 | 0.96 | 0.953 | 0.922 |
| NCI-H358 | 1.06 | 0.866 | 0.858 | 0.806 | 0.915 | 0.934 | 0.919 | 0.577 | 0.829 | 0.619 | 0.888 | 0.901 | 0.998 | 0.9 | 0.714 | 0.561 | 0.661 | 0.522 | 0.467 | 0.281 |
| NCI-H441 | 1.09 | 0.926 | 0.896 | 0.877 | 1.09 | 1.26 | 1.12 | 0.541 | 0.807 | 0.727 | 1.11 | 1.01 | 1.1 | 0.886 | 0.993 | 1.02 | 0.659 | 0.606 | 0.479 | 0.431 |
| NCI-H460 | 0.998 | 0.956 | 0.971 | 0.926 | 0.972 | 1.06 | 0.945 | 0.852 | 0.337 | 0.36 | 1.04 | 0.954 | 1.02 | 0.992 | 1.02 | 0.962 | 0.697 | 0.597 | 0.276 | 0.0863 |
| NCI-H520 | 0.953 | 0.902 | 0.962 | 0.746 | 1.02 | 1.24 | 1.05 | 0.978 | 0.567 | 0.511 | 1 | 0.882 | 1.02 | 0.808 | 0.709 | 0.957 | 0.784 | 0.751 | 0.565 | 0.371 |
| NCI-H596 | 1.01 | 0.935 | 0.882 | 0.736 | 1.08 | 1.01 | 0.869 | 0.799 | 0.865 | 0.83 | 0.996 | 1 | 1.02 | 1.02 | 0.973 | 0.857 | 0.934 | 0.932 | 0.959 | 1.03 |
| NCI-H647 | 0.891 | 0.915 | 0.828 | 0.711 | 1.03 | 1.08 | 0.707 | 0.705 | 0.458 | 0.55 | 1.11 | 0.864 | 0.975 | 0.918 | 0.904 | 1.28 | 0.865 | 0.813 | 0.511 | 0.389 |
| NCI-H650 | 0.776 | 0.958 | 0.994 | 0.918 | 0.958 | 1.1 | 0.761 | 0.391 | 0.359 | 0.417 | 1.03 | 0.737 | 0.929 |  | 1.13 | 0.838 | 0.758 | 0.432 | 0.388 | 0.339 |
| NCI-H661 | 0.996 | 0.973 | 0.955 | 0.967 | 0.971 | 0.998 | 0.969 | 0.957 | 0.82 | 0.611 | 0.988 | 1.09 | 1.03 | 0.974 | 1.01 | 0.993 | 1.05 | 1.13 | 0.694 | 0.86 |
| NCI-H727 | 1.05 | 0.909 | 0.981 | 0.603 | 0.91 | 1.21 | 1.15 | 0.767 | 0.986 | 0.947 | 1.14 | 0.918 | 1.06 | 1.27 | 1.15 | 1.16 | 1.04 | 1.14 | 0.835 | 0.823 |
